Data set [1] deals with HepG2 cells. The data set can be described thus: In vitro anti-proliferative SRB assay, HepG2. It counts as cell-based, human. Conditions: for IC50: Homo sapiens, HepG2, increasing concentrations up to 30 μM, mean ± SD of at least three independent experiments; for SI (CC50 HMLE/IC50 HepG2) / SI (CC50 L02/IC50 HepG2): selectivity index; for SI (CC50 HMLE/IC50 HepG2): HMLE vs HepG2; for SI (CC50 L02/IC50 HepG2): L02 vs HepG2. The protocol: (§1) HepG2 and MCF7 cells were grown in the Eagle’s minimum essential medium with Earle’s balanced salts (MEM-EBSS) medium, HeLa, A549 and L02 cells were grown in Dulbecco’s Modified Eagle Media (DMEM), SW1990 cells were grown in RPMI-1640 medium, and HMLE cell were grown in DMEM/F-12 medium. […]
(§2) Cells were seeded into 96-well plates (4000 cells/well) and incubated at 37 °C in a humidified 5% CO2 atmosphere. After 24 h, the cells were treated with different concentrations of the compounds for 48 h in triplicate to generate dose-response curves. Cell viability was evaluated using the sulforhodamine B (SRB) assay as previous described.
(In general: Sulforhodamine B stains cellular protein and so reports cell mass.)

Data set [2] has as its system SW1990 cells. Put plainly: In vitro anti-proliferative SRB assay, SW1990. It counts as cell-based, human. The note with it: for IC50: Homo sapiens, SW1990, increasing concentrations up to 30 μM, mean ± SD of at least three independent experiments; for SI (CC50 HMLE/IC50 SW1990) / SI (CC50 L02/IC50 SW1990): selectivity index; for SI (CC50 HMLE/IC50 SW1990): HMLE vs SW1990; for SI (CC50 L02/IC50 SW1990): L02 vs SW1990. Here is the method:
as §1, §2

The test system of data set [3] is MCF-7 cells. The data set can be described thus: In vitro anti-proliferative SRB assay, MCF-7. Type of data set: cell-based, human. The note with it: for IC50: Homo sapiens, MCF7, increasing concentrations up to 30 μM, mean ± SD of at least three independent experiments; for SI (CC50 HMLE/IC50 MCF7) / SI (CC50 L02/IC50 MCF7): selectivity index; for SI (CC50 HMLE/IC50 MCF7): HMLE vs MCF7; for SI (CC50 L02/IC50 MCF7): L02 vs MCF7. Here is the method: as §1, §2

Data set [4] deals with A549 cells. The data set can be described thus: In vitro anti-proliferative SRB assay, A549. Type of data set: cell-based, human. Conditions: for IC50: Homo sapiens, A549, increasing concentrations up to 30 μM, mean ± SD of at least three independent experiments; for SI (CC50 HMLE/IC50 A549) / SI (CC50 L02/IC50 A549): selectivity index; for SI (CC50 HMLE/IC50 A549): HMLE vs A549; for SI (CC50 L02/IC50 A549): L02 vs A549. The protocol:
as §1, §2

Data set [5] in a line: Cytotoxicity (SRB) against non-tumoral L02 cells. Type of data set: cell-based, human. The note with it: human, L02 cells (non-tumoral human liver cell line); increasing concentrations up to 100 μM; mean ± SD of at least three independent experiments; read-out: Normal Human Cell Lines, CC50, L02. The protocol: (§3) All compounds were also evaluated for their cytotoxic activity against two non-tumoral human cell lines named human mammary epithelial cell (HMLE) and L02 (a human liver cell line) in Table 2 and SI values between the CC50 in non-tumoral cell lines and IC50 in tumoral cells calculated.
as §1
(§4) Cells were seeded into 96-well plates (4000 cells/well) and incubated at 37 °C in a humidified 5% CO2 atmosphere. After 24 h, the cells were treated with different concentrations of the compounds for 48 h in triplicate to generate dose-response curves. Cell viability was evaluated using the sulforhodamine B (SRB) assay as previous described. […] Etoposide was used as the positive control.

A short description of data set [6]: Cytotoxicity (SRB) against non-tumoral HMLE cells. Conditions: human, HMLE cells (non-tumoral human mammary epithelial cells); increasing concentrations up to 100 μM; mean ± SD of at least three independent experiments; read-out: Normal Human Cell Lines, CC50, HMLE. Type of data set: cell-based, human. Here is the method: as §3, §1, §4
For data set [7], the system named is HeLa cells. The data set can be described thus: In vitro anti-proliferative SRB assay, HeLa. Type of data set: cell-based, human. Conditions: for IC50: Homo sapiens, HeLa, increasing concentrations up to 30 μM, mean ± SD of at least three independent experiments; for SI (CC50 HMLE/IC50 Hela) / SI (CC50 L02/IC50 Hela): selectivity index; for SI (CC50 HMLE/IC50 Hela): HMLE vs HeLa; for SI (CC50 L02/IC50 Hela): L02 vs HeLa. Here is the method: as §1, §2

Each structure is given as a SMILES string. Bounds are passed on as bounds.

Regarding `COc1cccc(OC)c1/C=C/C(=O)c1ccc(Cl)c(Cl)c1` [b38, (E)-1-(3,4-Dichlorophenyl)-3-(2,6-dimethoxyphenyl)prop-2-en-1-one], the melting point – broadly, the temperature of the solid-liquid transition – fell in the range of 142.1 to 143.4 °C. Moreover, in data set [1], it took 18.6 ± 1.24 µM to reach half-maximal inhibition (IC50), the “SI (CC50 HMLE/IC50 HepG2)” value is 1.5 and the “SI (CC50 L02/IC50 HepG2)” value is given as >5.4. Besides, in data set [2], inhibition was half-maximal at 26.16 ± 0.08 µM (IC50), the “SI (CC50 HMLE/IC50 SW1990)” value is 1.1 and the “SI (CC50 L02/IC50 SW1990)” value is >3.8. In data set [3], half-maximal inhibition (IC50) required 29.6 ± 2.13 µM, the “SI (CC50 HMLE/IC50 MCF7)” value was determined as 1.0 and the “SI (CC50 L02/IC50 MCF7)” value is reported as >3.4. Further, in data set [4], the IC50 (commonly the concentration needed to halve the response being measured) stood at 27.6 ± 0.58 µM, the “SI (CC50 HMLE/IC50 A549)” value was determined as 1.0 and the “SI (CC50 L02/IC50 A549)” value is >3.6. Besides, the CC50 (as a rule, the concentration at which the toxic effect on the cells reaches its halfway point) at 48 h in data set [5] is > 100 µM. The CC50 at 48 h in data set [6] turned out to be 28.3 ± 3.74 µM. Also, in data set [7], the IC50 was found to be 17.6 ± 2.01 µM, the “SI (CC50 HMLE/IC50 Hela)” value was found to be 1.6 and the “SI (CC50 L02/IC50 Hela)” value is on record as >5.7.
With `COc1cccc(OC)c1/C=C/C(=O)c1ccc(Cl)cc1Cl` [b37, (E)-1-(2,4-Dichlorophenyl)-3-(2,6-dimethoxyphenyl)prop-2-en-1-one], the melting point lay in the range of 111.1 to 112.7 °C. Further, in data set [1], the IC50 came to 11.7 ± 0.18 µM, the “SI (CC50 HMLE/IC50 HepG2)” value is on record as 1.7 and the “SI (CC50 L02/IC50 HepG2)” value is >8.5. Besides, in data set [2], the IC50 was found to be 15.4 ± 0.83 µM, the “SI (CC50 HMLE/IC50 SW1990)” value amounted to 1.3 and the “SI (CC50 L02/IC50 SW1990)” value is recorded as >6.5. Also, in data set [3], the IC50 was 30.4 ± 0.71 µM, the “SI (CC50 HMLE/IC50 MCF7)” value was determined as 0.7 and the “SI (CC50 L02/IC50 MCF7)” value is on record as >3.3. Further, in data set [4], the IC50 was > 30 µM and the “SI (CC50 HMLE/IC50 A549)” value is given as <0.7. Further, the CC50 at 48 h in data set [5] was > 100 µM. The CC50 at 48 h in data set [6] came to 19.8 ± 1.44 µM. In addition, in data set [7], the IC50 is 15.7 ± 1.09 µM, the “SI (CC50 HMLE/IC50 Hela)” value was 1.3 and the “SI (CC50 L02/IC50 Hela)” value is listed as >6.4.
Take `COc1cccc(OC)c1/C=C/C(=O)c1cccc(Br)c1` [b36, (E)-1-(3-Bromophenyl)-3-(2,6-dimethoxyphenyl)prop-2-en-1-one]: the melting point was in the range of 135.7 to 138.2 °C. Also, in data set [1], the IC50 was found to be 11.3 ± 1.45 µM, the “SI (CC50 HMLE/IC50 HepG2)” value is reported as 1.2 and the “SI (CC50 L02/IC50 HepG2)” value is 5.4. Also, in data set [2], 17.1 ± 0.57 µM corresponded to half-maximal inhibition (IC50), the “SI (CC50 HMLE/IC50 SW1990)” value was 0.8 and the “SI (CC50 L02/IC50 SW1990)” value is 3.6. Further, in data set [3], it took 23.3 ± 0.79 µM to reach half-maximal inhibition (IC50), the “SI (CC50 HMLE/IC50 MCF7)” value came to 0.6 and the “SI (CC50 L02/IC50 MCF7)” value amounted to 2.6. Also, in data set [4], it took 25 ± 3.17 µM to reach half-maximal inhibition (IC50), the “SI (CC50 HMLE/IC50 A549)” value is listed as 0.5 and the “SI (CC50 L02/IC50 A549)” value came to 2.4. Moreover, the CC50 at 48 h in data set [5] came out at 61.2 ± 12.1 µM. For the same compound, the CC50 at 48 h in data set [6] was determined as 13.1 ± 1.21 µM. In data set [7], the IC50 was 13.4 ± 0.44 µM, the “SI (CC50 HMLE/IC50 Hela)” value was 1.0 and the “SI (CC50 L02/IC50 Hela)” value stood at 4.6.
With `COc1cc(C(=O)/C=C/c2c(OC)cccc2OC)ccc1OCc1ccccc1` [b15, (E)-1-(4-(Benzyloxy)-3-methoxyphenyl)-3-(2,6-dimethoxyphenyl)prop-2-en-1-one], the melting point was in the range of 112.8 to 114.1 °C. Further, the IC50 in data set [1] was > 30 µM. The IC50 in data set [2] is > 30 µM. The IC50 in data set [3] was > 30 µM. Moreover, the IC50 in data set [4] is > 30 µM. Besides, in data set [5], the CC50 at 48 h is > 100 µM. For the same compound, in data set [6], the CC50 at 48 h is > 100 µM. For the same compound, in data set [7], the 50% inhibitory concentration (IC50) was > 30 µM.

(Values after PMC6271338, “Synthesis and Cytotoxic Evaluation of Alkoxylated Chalcones” (Molecules, 2014).)
